Tests used:
S. mutans PMZ175 = experiment: bacteriolytic effect, decrease in turbidity with time, various surfactants added to Aml; format: cell-based, Streptococcus mutans; conditions: Table 3
Experimental: (§1) The method for measuring the bacteriolytic effect adopted in the present invention is as follows.
(§2) The bacterial strain to be measured its bacteriolytic effect was cultivated overnight, it was washed by physiological saline then suspended into 0.1M phosphate buffer (pH 6.8) containing 0.1M NaCl and 0.1 mM CaCl2. The cell body was treated by ultrasonic generator to disperse the cell body. Thereafter, 500 μg/ml Aml solution dissolved into 30% ethyleneglycol-0.1M sodium phosphate buffer (pH 6.3) and 5 mg/ml surfactant dissolved into distilled water (40 μl) were added into a system consisting of 1 ml of bacterial suspension. 0.1M phosphate buffer solution and 0.1 mM calcium. It was incubated at 37° C., then the turbidity was measured with time, and the bacteriolytic effect was evaluated using the rate of decrease in turbidity as an index.
Using S. mutans PMZ175 (a cariogenic bacterium), the bacteriolytic effect was investigated using experimental systems in which various surfactants were added to Aml (FIG. 3, Table 3). Meanwhile, the food additives investigated in this experiment were glycyrrhizin (0.5%), saponin from quillaya (0.5%), S1670 (0.1%), S1570 (0.05%), P1670 (0.05%), saponin from soybean (0.05%), saponin from yucca (0.05%), and Triton X (0.05%).

Streptcoccus mutans 403R = experiment: bacteriolytic effect, decrease in turbidity with time; format: cell-based, Streptococcus mutans; conditions: for percentage of turbidity (beginning = 100%): Table 1, Aml alone or Aml + 0.05% surfactant
Experimental: as §1, §2
Using Streptcoccus mutans 403R (dental caries causing bacterium), the bacteriolytic effect was measured with time using an experimental system of Aml alone, and an experimental system of Aml added with P1670 or S1570 at the concentration of 0.05% (Table 1, FIG. 1). In table 1 and FIG. 1, the turbidity of the bacterial solution at the beginning of the experiment was indicated as 100%, and the bacteriolytic effect was represented by the percentage of turbidity at each time point. […] By the way, the control indicates a system in which only a cariogenic bacterium was cultivated.
Using Streptcoccus mutans 403R, the bacteriolytic effect was measured with time on systems in which P1670 or S1570 was added into Aml at various final concentrations (0.05%, 0.025%, 0.001%) (Table 2, FIG. 2).

`CC1(C)[C@@H](O[C@H]2O[C@H](C(=O)O)[C@@H](O)[C@H](O)[C@H]2O[C@@H]2O[C@H](C(=O)O)[C@@H](O)[C@H](O)[C@H]2O)CC[C@]2(C)[C@H]3C(=O)C=C4[C@@H]5C[C@@](C)(C(=O)O)CC[C@]5(C)CC[C@@]4(C)[C@]3(C)CC[C@@H]12` [Glycyrrhizin, glycyrrhizin] was tested, and the “percentage of turbidity (beginning = 100%)” value (S. mutans PMZ175; Aml + 0.5% surfactant, Time 0) was 100.0%, the “percentage of turbidity (beginning = 100%)” value (S. mutans PMZ175; Aml + 0.5% surfactant, Time 0.25) was 96.6% and the “percentage of turbidity (beginning = 100%)” value (S. mutans PMZ175; Aml + 0.5% surfactant, Time 0.5) was 93.6%. The “percentage of turbidity (beginning = 100%)” value (S. mutans PMZ175; Aml + 0.5% surfactant, Time 1) was 89.0%, the “percentage of turbidity (beginning = 100%)” value (S. mutans PMZ175; Aml + 0.5% surfactant, Time 1.5) was 81.3% and the “percentage of turbidity (beginning = 100%)” value (S. mutans PMZ175; Aml + 0.5% surfactant, Time 2.5) was 83.7%. The “percentage of turbidity (beginning = 100%)” value (S. mutans PMZ175; Aml + 0.5% surfactant, Time 3) was 80.3%, the “percentage of turbidity (beginning = 100%)” value (S. mutans PMZ175; Aml + 0.5% surfactant, Time 3.5) was 82.3% and the “percentage of turbidity (beginning = 100%)” value (S. mutans PMZ175; Aml + 0.5% surfactant, Time 4) was 77.4%.

In the case of `CC(C)(C)CC(C)(C)c1ccc(OCCO)cc1` [Triton, Triton X], the “percentage of turbidity (beginning = 100%)” value (S. mutans PMZ175; Aml + 0.05% surfactant, Time 0) is reported as 100.0%, the “percentage of turbidity (beginning = 100%)” value (S. mutans PMZ175; Aml + 0.05% surfactant, Time 0.25) is reported as 93.8% and the “percentage of turbidity (beginning = 100%)” value (S. mutans PMZ175; Aml + 0.05% surfactant, Time 0.5) is reported as 68.6%. The “percentage of turbidity (beginning = 100%)” value (S. mutans PMZ175; Aml + 0.05% surfactant, Time 1) was 10.3%, the “percentage of turbidity (beginning = 100%)” value (S. mutans PMZ175; Aml + 0.05% surfactant, Time 1.5) was −3.4% and the “percentage of turbidity (beginning = 100%)” value (S. mutans PMZ175; Aml + 0.05% surfactant, Time 2.5) was −6.6%. The “percentage of turbidity (beginning = 100%)” value (S. mutans PMZ175; Aml + 0.05% surfactant, Time 3) was −7.1%, the “percentage of turbidity (beginning = 100%)” value (S. mutans PMZ175; Aml + 0.05% surfactant, Time 3.5) was −7.7% and the “percentage of turbidity (beginning = 100%)” value (S. mutans PMZ175; Aml + 0.05% surfactant, Time 4) was −8.8%.

B1: automutanolysin (protein)
chain: MKSKTYLMIPLALTLFMAANKISADEQNQSLSASEVISSDATSVSELPATTAQISQEVRNNGQDSTIQLQQTQEQSDPITSTSETTVSSMKAATNGSPAKANETETVPSQASTASSVQTPDQILTVPSVKAETTSTADQLQSTSSAPLDQQTDAKRLSNKMTPASSVQARSSLTQDKQVQAQEVTSAVVEEKGIKLQYNGQIARNTKIQFAVWSARNDQDDLQWYTANNMGAAYAEFKNHREYGTYYVHTYANQNGKMIGLNATTLTIAQPQVQTNIQRKSATNFELTVSNVPNTISGIMVPVWSDQNGQDDIKWYNARKADDGSYKVLIDTKNHKNDLGHYEAHIYGYSTVTQSQIGLAVSSGFDRNDTRPNARISVANYDQNKTTFDVVVEGSSDTKTVSAVNIAVWSEDKGQDDLKWYSPKIVDNKATVTINIANHSNTSDKYNVHVYTDYTDGTHSGTILGAYQINKPLEKNTVSADLTSDGIALKLDSNTVTDYTKVRFAVWSDQNGQDDLKWYSANSDGTATAAYSNHSGYGLYHIHTYIIKDGKMVGLNGKTITINQPSAKVDIAKESDALYKVTVSNLPAYISSVVIPVWTDKNNQDDIQWIPATKQGDGTYAAQIQLADHNGETGHYNVHVYGQSKFDNKAVGLAATDGFNVAETRNAVIAASNYNASAGTIDMIVKQEAGGKAIKEVRIAAWSEADQSNLHWYVSSTIIDGKVTVTINEKNHQYIKGNYNIHVYVDYTDGTSSGTNIGNYSLNADKPAVALPSYFIDISSHNGIISVAEFNSLKQQGIQGVVVKLTEGTSYINPYASSQIANARAAGIKVSAYHYAHYTSAAGAQEEARYFANAARSFGLEASTVMVNDMEESSMVNNINNNVQAWQDEMRRQGYSNLIHYTMASWLDIRGGQVDTARFGINNFWVAHYAKGYTYMTQEEAKSLNYYANAAAWQYTSVSSKLSHALDENIDYTGRFTQQ
modifications: Streptococcus mutans
notes: bacterial cell wall lytic enzyme from Streptococcus mutans specific to cariogenic bacterium
For B1, the “percentage of turbidity (beginning = 100%)” value (Streptcoccus mutans 403R; Time 0) was 100.0%, the “percentage of turbidity (beginning = 100%)” value (Streptcoccus mutans 403R; Time 0.25) was 93.3% and the “percentage of turbidity (beginning = 100%)” value (Streptcoccus mutans 403R; Time 0.5) was 81.5%. For the same molecule, the “percentage of turbidity (beginning = 100%)” value (Streptcoccus mutans 403R; Time 1) was 62.6%, the “percentage of turbidity (beginning = 100%)” value (Streptcoccus mutans 403R; Time 1.5) was 50.8% and the “percentage of turbidity (beginning = 100%)” value (Streptcoccus mutans 403R; Time 2) was 42.2%. For the same molecule, the “percentage of turbidity (beginning = 100%)” value (Streptcoccus mutans 403R; Time 4) was 24.6% and the “time required for the bacteriolysis of 50% of living bacterium (ED50)” value (Streptcoccus mutans 403R; summary, Aml alone) was 1.5 h.
